Patent US20230348426A1, “OXOPYRROLIDINE FPR2 AGONISTS” (Bristol-Myers Squibb Company, priority 2020, published 2023)

Experiments:
[1] = biological target: human FPR2 (Homo sapiens (Human), UniProt P25090); experiment: FPR2 cyclic adenosine monophosphate (cAMP) assay; format: cell-based; details: CHO cells overexpressing human FPR2; forskolin 5 µM; inhibition of cAMP production; read-out: hFPR2 cAMP2 EC50
Outline: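 CHO cells overexpressing human FPR2 (2,000/well) incubated 30 min at room temperature with compound (0.020 nM–100 µM, 1% DMSO), 5 µM forskolin and 200 µM IBMX.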

[2] = biological target: human FPR1 (Homo sapiens (Human), UniProt P21462); experiment: FPR1 cyclic adenosine monophosphate (cAMP) assay; format: cell-based; details: CHO cells overexpressing human FPR1; forskolin 10 µM; inhibition of cAMP production; read-out: hFPR1 cAMP EC50
Chain of human FPR1 (P21462 whole entry): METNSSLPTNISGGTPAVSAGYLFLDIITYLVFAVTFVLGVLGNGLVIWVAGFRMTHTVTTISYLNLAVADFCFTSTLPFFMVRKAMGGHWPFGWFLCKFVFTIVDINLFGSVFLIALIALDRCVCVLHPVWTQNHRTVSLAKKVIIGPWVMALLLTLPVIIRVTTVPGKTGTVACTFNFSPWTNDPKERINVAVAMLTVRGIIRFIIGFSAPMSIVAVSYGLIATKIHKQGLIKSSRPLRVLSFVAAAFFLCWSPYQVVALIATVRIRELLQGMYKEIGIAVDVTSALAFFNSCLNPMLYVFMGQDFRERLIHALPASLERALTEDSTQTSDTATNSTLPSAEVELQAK
Outline: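 CHO cells overexpressing human FPR1 (4,000 cells/well) stimulated with 10 µM forskolin plus 200 µM IBMX in the presence of compound (0.020 nM–100 µM, 1% DMSO), 30 min at room temperature. Intracellular cAMP measured by HTRF. Inhibition of cAMP production fitted to a 4-parameter logistic equation.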

Chain of human FPR2 (P25090 whole entry): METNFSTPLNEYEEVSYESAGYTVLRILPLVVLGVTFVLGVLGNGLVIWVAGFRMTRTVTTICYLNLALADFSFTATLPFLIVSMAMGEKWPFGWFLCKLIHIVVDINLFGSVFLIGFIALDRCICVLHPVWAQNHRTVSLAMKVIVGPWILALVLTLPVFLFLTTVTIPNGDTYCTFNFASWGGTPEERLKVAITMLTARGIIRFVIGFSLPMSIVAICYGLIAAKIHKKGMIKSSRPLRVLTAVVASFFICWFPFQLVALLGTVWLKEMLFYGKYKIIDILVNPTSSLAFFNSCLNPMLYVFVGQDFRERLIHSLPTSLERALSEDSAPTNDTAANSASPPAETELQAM

EC50 [1] [nM]	EC50 [2] [nM]	Compound
1.7	7.2	COc1ccc([C@@H]2CN(c3cccn(CCO)c3=O)C(=O)[C@H]2NC(=O)c2ccc(OC(F)(F)F)cc2)cc1 [Example 64]
10	0.4	COc1cc(F)c([C@@H]2CN(c3c(C)ccn(CC(OC)C(F)(F)F)c3=O)C(=O)[C@H]2NC(=O)c2ccc(OC(F)F)cc2)c(F)c1 (stereo partly drawn) [Example 314]
28	1500	COc1ccnc(N2C[C@@H](c3c(F)cc(OC)cc3F)[C@H](NC(=O)c3ccc(OC(F)(F)F)cc3)C2=O)c1 [Example 23]
7	11	COc1cc(F)c([C@@H]2CN(c3cccn(CC(C)OC)c3=O)C(=O)[C@H]2NC(=O)c2ccc(OC(F)F)cc2)c(F)c1 (stereo partly drawn) [Example 253]
28	4200	COc1cc(F)c([C@@H]2CN(c3cccnc3C#N)C(=O)[C@H]2NC(=O)c2ccc(OC(F)F)cc2)c(F)c1 [Example 1, N-((3S,4R)-1-(2-cyanopyridin-3-yl)-4-(2,6-difluoro-4-methoxyphenyl)-2-oxopyrrolidin-3-yl)-4-(difluoromethoxy)benzamide]
3.9	> 5000	COc1cc(C2CCN(CC(C)(C)O)CC2)nc(N2C[C@@H](c3c(F)cc(OC)cc3F)[C@H](NC(=O)c3ccc(OC(F)F)cc3)C2=O)c1 [Example 720]
7.3	1.6	COCC(C(=O)N(C)C)n1ccc(C)c(N2C[C@@H](c3c(F)cc(OC)cc3F)[C@H](NC(=O)c3ccc(OC(F)F)cc3)C2=O)c1=O (stereo partly drawn) [Example 257]
3.3	380	COc1cc(F)c([C@@H]2CN(c3nccc(NCC(C)O)c3C(F)(F)F)C(=O)[C@H]2NC(=O)c2ccc(OC(F)F)cc2)c(F)c1 (stereo partly drawn) [Example 129]
1.7	16	COc1ccc([C@@H]2CN(c3cccn(CCO)c3=O)C(=O)[C@H]2NC(=O)c2ccc(OC(F)(F)F)cc2)c(F)c1 [Example 63]
11	750	COc1cc(F)c([C@@H]2CN(c3cc(NC(C)=O)cn(C)c3=O)C(=O)[C@H]2NC(=O)c2ccc(OC(F)F)cc2)c(F)c1 [Example 323]
4.4	0.9	CCn1ccc(C)c(N2C[C@@H](c3ccc(OC)cc3)[C@H](NC(=O)c3ccc(OC(F)(F)F)cc3)C2=O)c1=O [Example 170]
3.1	12	CCn1nccc(N2C[C@@H](c3c(F)cc(OC)cc3F)[C@H](NC(=O)c3ccc(OC(F)(F)F)cc3)C2=O)c1=O [Example 357]
8.9	0.6	COCC(C(=O)N(C)C)n1ccc(C)c(N2C[C@@H](c3ccc(OC)cc3)[C@H](NC(=O)c3ccc(OC(F)F)cc3)C2=O)c1=O (stereo partly drawn) [Example 295]
33	120	COc1cc(F)c([C@@H]2CN(c3nc(C4CCOCC4)ccc3N(C)C)C(=O)[C@H]2NC(=O)c2ccc(OC(F)F)cc2)c(F)c1 [Example 343]
4.8	0.7	COCCn1ccc(C)c(N2C[C@@H](c3c(F)cc(OC)cc3F)[C@H](NC(=O)c3ccc(OC(F)(F)F)cc3)C2=O)c1=O [Example 185]
0.6	120	COCCOc1ncccc1N1C[C@@H](c2c(F)cc(OC)cc2F)[C@H](NC(=O)c2ccc(Cl)cc2)C1=O [Example 413]
5.7	> 5000	COc1cc(F)c([C@@H]2CN(c3cc(C)cc(C4CCNCC4)n3)C(=O)[C@H]2NC(=O)c2ccc(OC(F)F)cc2)c(F)c1 [Example 716]
0.8	3	COCC(C(=O)N1C[C@@H]2C[C@H]1CO2)n1cccc(N2C[C@@H](c3c(F)cc(OC)cc3F)[C@H](NC(=O)c3ccc(OC(F)(F)F)cc3)C2=O)c1=O (stereo partly drawn) [Example 363]
9.9	35	COc1cc(F)c([C@H]2[C@H](NC(=O)c3ccc(OC(F)F)cc3)C(=O)N(c3cccc(C4CCN(CC(F)F)CC4)n3)[C@H]2C)c(F)c1 [Example 537]
6.6	38	COc1cc(F)c([C@@H]2CN(c3cccn(CCC(F)(F)F)c3=O)C(=O)[C@H]2NC(=O)c2ccc(OC(F)F)cc2)c(F)c1 [Example 241]
3.1	680	COc1cc(F)c([C@@H]2CN(c3c(C)ccn(C4CCNC4)c3=O)C(=O)[C@H]2NC(=O)c2ccc(Cl)cc2)c(F)c1 (stereo partly drawn) [Example 530]
6	50	COc1cc(F)c([C@@H]2CN(c3cccn(CCF)c3=O)C(=O)[C@H]2NC(=O)c2ccc(OC(F)(F)F)cc2)c(F)c1 [Example 221]
1.4	1	CCn1c2c(cc(N3C[C@@H](c4c(F)cc(OC)cc4F)[C@H](NC(=O)c4ccc(OC(F)F)cc4)C3=O)c1=O)CCCC2 [Example 460]
0.9	3.7	COc1ccc([C@@H]2CN(c3c(C)ccn(CC(F)F)c3=O)C(=O)[C@H]2NC(=O)c2ccc(OC(F)F)cc2)cc1 [Example 632]

EC50 [1] [nM]	EC50 [2] [nM]	Compound
6.6	130	COc1cc(F)c([C@@H]2CN(c3ccc(CO)[nH]c3=O)C(=O)[C@H]2NC(=O)c2ccc(OC(F)(F)F)cc2)c(F)c1 [Example 240]
< 5	1.9	COc1cc(F)c([C@@H]2CN(c3c(C)c4c(n(CCO)c3=O)CCCC4)C(=O)[C@H]2NC(=O)c2ccc(OC(F)F)cc2)c(F)c1 [Example 605]
3.6	23.1	COCC(CO)n1cccc(N2C[C@@H](c3c(F)cc(OC)cc3F)[C@H](NC(=O)c3ccc(OC(F)(F)F)cc3)C2=O)c1=O (stereo partly drawn) [Example 144]
5.2	1.7	CCn1ccc(C)c(N2C[C@@H](c3c(F)cc(OC)cc3F)[C@H](NC(=O)c3ccc(OC(F)F)cc3)C2=O)c1=O [Example 197]
4.7	0.1	COCCn1ccc(C)c(N2C[C@@H](c3ccc(OC)cc3)[C@H](NC(=O)c3ccc(OC(F)(F)F)cc3)C2=O)c1=O [Example 178]
1.4	0.066	COc1ccc([C@@H]2CN(c3c(C)ccn(CC4CC4)c3=O)C(=O)[C@H]2NC(=O)c2ccc(OC(F)(F)F)cc2)cc1 [Example 57]
3.9	6	COc1cc(F)c([C@@H]2CN(c3c(C)ccn(C4COC4)c3=O)C(=O)[C@H]2NC(=O)c2ccc(OC(F)(F)F)cc2)c(F)c1 [Example 463]
9	8.5	COc1cc(F)c([C@@H]2CN(c3cccn(C4CCOC4)c3=O)C(=O)[C@H]2NC(=O)c2ccc(OC(F)(F)F)cc2)c(F)c1 (stereo partly drawn) [Example 298]
4	1.3	COc1cc(F)c([C@@H]2CN(c3cccn(CC(OC)C(F)(F)F)c3=O)C(=O)[C@H]2NC(=O)c2ccc(OC(F)(F)F)cc2)c(F)c1 (stereo partly drawn) [Example 156]
< 5	9	COc1ccc([C@@H]2CN(c3cccn(CC(C)O)c3=O)C(=O)[C@H]2NC(=O)c2ccc(OC(F)F)cc2)c(F)c1 (stereo partly drawn) [Example 436]
5.4	1.4	COCCn1ccc(C)c(N2C[C@@H](c3ccc(OC)cc3F)[C@H](NC(=O)c3ccc(OC(F)F)cc3)C2=O)c1=O [Example 208]
1.8	1	COc1ccc([C@@H]2CN(c3cccn(CC(OC)C(F)(F)F)c3=O)C(=O)[C@H]2NC(=O)c2ccc(OC(F)(F)F)cc2)cc1 (stereo partly drawn) [Example 433]
8.1	340	COc1cc(F)c([C@@H]2CN(c3cccn(CCN4CCOCC4)c3=O)C(=O)[C@H]2NC(=O)c2ccc(OC(F)(F)F)cc2)c(F)c1 [Example 278]
7.8	180	COc1cc(F)c([C@@H]2CN(c3nc(C4CCNCC4)ccc3C(F)(F)F)C(=O)[C@H]2NC(=O)c2ccc(OC(F)F)cc2)c(F)c1 [Example 270]
10	5400	COc1cc(F)c([C@@H]2CN(c3nc(C(C)(C)O)ccc3F)C(=O)[C@H]2NC(=O)c2ccc(Cl)cc2)c(F)c1 [Example 313]
7.1	1	COc1ccc([C@@H]2CN(c3c(C)ccn(CC4CC4)c3=O)C(=O)[C@H]2NC(=O)c2ccc(Cl)cc2)cc1 [Example 385]
5.9	1	COc1cc(F)c([C@@H]2CN(c3c(C)ccn(C4CCOCC4)c3=O)C(=O)[C@H]2NC(=O)c2ccc(OC(F)(F)F)cc2)c(F)c1 [Example 478]
12	1700	COc1cc(F)c([C@@H]2CN(c3nccc(NC4COC4)c3C(F)(F)F)C(=O)[C@H]2NC(=O)c2ccc(Cl)cc2)c(F)c1 [Example 327]
10	1300	COc1cc(F)c([C@@H]2CN(c3ncccc3C(F)(F)F)C(=O)[C@H]2NC(=O)c2ccc(OC(F)F)cc2)c(F)c1 [Example 7]
1.6	860	COc1cc(F)c([C@@H]2CN(c3cccn4cc(C5CC5)nc34)C(=O)[C@H]2NC(=O)c2ccc(Cl)cc2)c(F)c1 [Example 495]
3.2	7	COc1ccc([C@@H]2CN(c3cccn(CC(O)C(F)(F)F)c3=O)C(=O)[C@H]2NC(=O)c2ccc(OC(F)(F)F)cc2)cc1 (stereo partly drawn) [Example 354]
5.7	2.5	COc1ccc([C@@H]2CN(c3c(C)ccn(CC4CCOCC4)c3=O)C(=O)[C@H]2NC(=O)c2ccc(OC(F)F)cc2)c(F)c1 [Example 698]
6.3	3.2	COCCn1ccc(C)c(N2C[C@@H](c3c(F)cc(OC)cc3F)[C@H](NC(=O)c3ccc(OC(F)F)cc3)C2=O)c1=O [Example 232]

Compound	EC50 [1] [nM]	EC50 [2] [nM]
COc1cc(F)c([C@@H]2CN(c3nc(C4CCN(CC(F)F)CC4)ccc3F)C(=O)[C@H]2NC(=O)c2ccc(OC(F)F)cc2)c(F)c1 [Example 549]	4.1	28
